Measurements taken from PubChem BioAssay AID248 (DTP/NCI, 2004).
“And” between values parts separate entries of the source, which are not always exact repeats. Identical values can stand only once. Toxic doses and inconclusive results are not listed. No stated cut-off is given here; in the data, active means T/C of 150% or more; inactive means T/C below 125%.

Tested on: L1210 leukemia ip in BDF1 mice, survival T/C
Assay: NCI In Vivo Anticancer Drug Screen. Data for tumor model L1210 Leukemia (intraperitoneal) in B6D2F1 (BDF1) mice
Settings: endpoint: mean survival time, higher = longer survival
How it was run: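 Tumor was transplanted into mice, which were then dosed with test compound or vehicle alone. Survival was recorded for each group, and the treated figure was expressed relative to the control figure.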

[1] = dose: 25.0 mg/kg/injection, schedule: Q01DX001 (ip), vehicle: saline with Tween-80
[2] = dose: 50.0 mg/kg/injection, schedule: Q01DX001 (ip), vehicle: saline with Tween-80
[3] = dose: 100.0 mg/kg/injection, schedule: Q01DX001 (ip), vehicle: saline with Tween-80
[4] = dose: 100.0 mg/kg/injection, schedule: Q04DX002 (ip), vehicle: Klucel (hydroxypropylcellulose) (HPC)
[5] = dose: 200.0 mg/kg/injection, schedule: Q04DX002 (ip), vehicle: Klucel (hydroxypropylcellulose) (HPC)
[6] = dose: 400.0 mg/kg/injection, schedule: Q04DX002 (ip), vehicle: Klucel (hydroxypropylcellulose) (HPC)
[7] = dose: 100.0 mg/kg/injection, schedule: Q01DX009 (ip), vehicle: Klucel (hydroxypropylcellulose) (HPC)
[8] = dose: 200.0 mg/kg/injection, schedule: Q01DX009 (ip), vehicle: Klucel (hydroxypropylcellulose) (HPC)
[9] = dose: 400.0 mg/kg/injection, schedule: Q01DX009 (ip), vehicle: Klucel (hydroxypropylcellulose) (HPC)
[10] = dose: 100.0 mg/kg/injection, schedule: Q04DX003 (ip), vehicle: saline with Tween-80
[11] = dose: 200.0 mg/kg/injection, schedule: Q04DX003 (ip), vehicle: saline with Tween-80
[12] = dose: 400.0 mg/kg/injection, schedule: Q04DX003 (ip), vehicle: saline with Tween-80
[13] = dose: 100.0 mg/kg/injection, schedule: Q01DX009 (ip), vehicle: saline with Tween-80
[14] = dose: 50.0 mg/kg/injection, schedule: Q01DX001 (ip), vehicle: saline
[15] = dose: 100.0 mg/kg/injection, schedule: Q01DX001 (ip), vehicle: saline
[16] = dose: 200.0 mg/kg/injection, schedule: Q01DX001 (ip), vehicle: saline
[17] = dose: 50.0 mg/kg/injection, schedule: Q01DX009 (ip), vehicle: Klucel (hydroxypropylcellulose) (HPC)
[18] = dose: 100.0 mg/kg/injection, schedule: Q04DX003 (ip), vehicle: Klucel (hydroxypropylcellulose) (HPC)
[19] = dose: 200.0 mg/kg/injection, schedule: Q04DX003 (ip), vehicle: Klucel (hydroxypropylcellulose) (HPC)
[20] = dose: 400.0 mg/kg/injection, schedule: Q04DX003 (ip), vehicle: Klucel (hydroxypropylcellulose) (HPC)

Measured: T/C

O=C([O-])CO.[Co+3].[NH2-].[NH2-].[NH2-].[NH2-].[NH2-].[O-][Cl+3]([O-])([O-])O
inactive: dose: 100.0 mg/kg/injection, schedule: Q04DX002 (ip), vehicle: saline 103 % of control | dose: 200.0 mg/kg/injection, schedule: Q04DX002 (ip), vehicle: saline 100 % of control | dose: 400.0 mg/kg/injection, schedule: Q04DX002 (ip), vehicle: saline 103 % of control

CCN(CC)CCOc1ccc(/C=C(/C(=O)c2ccccc2)c2ccccc2)cc1
inactive: dose: 100.0 mg/kg/injection, schedule: Q04DX003 (sc), vehicle: olive oil, sesame oil, peanut oil 101 % of control | dose: 200.0 mg/kg/injection, schedule: Q04DX003 (sc), vehicle: olive oil, sesame oil, peanut oil 101 % of control | dose: 400.0 mg/kg/injection, schedule: Q04DX003 (sc), vehicle: olive oil, sesame oil, peanut oil 101 % of control

Nc1nc(=O)n(CCCOc2ccc([N+](=O)[O-])c(Cl)c2)cc1-c1ccc(Cl)c(Cl)c1
inactive: [1] 95 % of control | [2] 96 % of control | [3] 88 % of control

Clc1ccc(/C=N/c2snc3ccccc23)cc1Cl
inactive: [4] 92 % of control | [5] 89 % of control | [6] 86 % of control

N=C(N)/C=C\C(=O)O
inactive: dose: 5.0 mg/kg/injection, schedule: Q01DX Z (ip), vehicle: carboxymethylcellulose (CMC) 93 % of control | dose: 10.0 mg/kg/injection, schedule: Q01DX Z (ip), vehicle: carboxymethylcellulose (CMC) 103 % of control | dose: 20.0 mg/kg/injection, schedule: Q01DX Z (ip), vehicle: carboxymethylcellulose (CMC) 101 % of control

CC(C)CCC(=O)OC1CCC2(C)C(=CCC3C2CCC2(C)C(O)CCC32)C1 (stereo unspecified)
inactive: [3] 92 % of control | dose: 200.0 mg/kg/injection, schedule: Q01DX001 (ip), vehicle: saline with Tween-80 93 % of control | dose: 400.0 mg/kg/injection, schedule: Q01DX001 (ip), vehicle: saline with Tween-80 101 % of control

CCc1cccc(CC)c1N=Cc1ccccc1
inactive: [7] 97 % of control | [8] 105 % of control | [9] 97 % of control

COC(=O)C1=CNC=C(C(=O)OC)C1c1ccccc1
inactive: [10] 96 % of control | [11] 96 % of control | [12] 98 % of control

[Cl][Fe]([Cl])([Cl])[Cl].c1ccc(-c2cc(-c3ccccc3)[o+]c(-c3ccccc3)c2)cc1
inactive: dose: 25.0 mg/kg/injection, schedule: Q01DX009 (ip), vehicle: saline with Tween-80 87 % of control | dose: 50.0 mg/kg/injection, schedule: Q01DX009 (ip), vehicle: saline with Tween-80 88 % of control | [13] 90 % of control

C=CCNCC=C
inactive: [14] 96 % of control | [15] 96 % of control | [16] 98 % of control

N#CCCN/N=C\c1ccc2c(c1)OCO2
inactive: [14] 95 % of control | [15] 97 % of control | [16] 95 % of control | dose: 400.0 mg/kg/injection, schedule: Q01DX001 (ip), vehicle: saline 95 % of control

CC(=O)Nc1cccc(C(F)(F)F)c1
inactive: dose: 25.0 mg/kg/injection, schedule: Q01DX009 (ip), vehicle: Klucel (hydroxypropylcellulose) (HPC) 101 % of control | [17] 96 % of control | [7] 101 % of control

CN(C)c1nc(=[N+](C)C)ss1
inactive: dose: 15.0 mg/kg/injection, schedule: Q01DX015 (ip), vehicle: saline 102 % of control | dose: 30.0 mg/kg/injection, schedule: Q01DX015 (ip), vehicle: saline 94 % of control | dose: 60.0 mg/kg/injection, schedule: Q01DX015 (ip), vehicle: saline 100 % of control | [10] 100 % of control | dose: 120.0 mg/kg/injection, schedule: Q01DX015 (ip), vehicle: saline 105 % of control | [11] 96 % of control

Nc1nc2c(c(=O)[nH]1)CN(C(CCc1ccc(N(CCCl)CCCl)cc1)C(=O)O)CN2 (stereo unspecified)
inactive: dose: 12.5 mg/kg/injection, schedule: Q01DX001 (ip), vehicle: carboxymethylcellulose (CMC) 111 % of control | dose: 25.0 mg/kg/injection, schedule: Q01DX001 (ip), vehicle: carboxymethylcellulose (CMC) 107 % of control | dose: 50.0 mg/kg/injection, schedule: Q01DX001 (ip), vehicle: carboxymethylcellulose (CMC) 113 % of control | dose: 50.0 mg/kg/injection, schedule: Q01DX009 (ip), vehicle: carboxymethylcellulose (CMC) 101 % of control | dose: 100.0 mg/kg/injection, schedule: Q01DX001 (ip), vehicle: carboxymethylcellulose (CMC) 111 % of control | dose: 100.0 mg/kg/injection, schedule: Q01DX009 (ip), vehicle: carboxymethylcellulose (CMC) 108 % of control

O=C(O)c1ccc([N+](=O)[O-])cc1-n1cccc1
inactive: [18] 95 % of control | [19] 98 % of control | [20] 88 % of control

COc1ccc(NC(=O)Oc2ccc(F)cc2Cl)c(OC)c1
inactive: [7] 97 % of control | [8] 95 % of control | [9] 101 % of control

CC(C)(C)c1ccc(S(=O)(=O)C/C=C/COc2ccccc2)cc1
inactive: dose: 75.0 mg/kg/injection, schedule: Q01DX009 (ip), vehicle: Klucel (hydroxypropylcellulose) (HPC) 91 % of control | dose: 150.0 mg/kg/injection, schedule: Q01DX009 (ip), vehicle: Klucel (hydroxypropylcellulose) (HPC) 98 % of control

CC(=O)N(CC(=O)O)Cc1ccccc1
inactive: dose: 100.0 mg/kg/injection, schedule: Q01DX009 (ip), vehicle: other 100 % of control | dose: 100.0 mg/kg/injection, schedule: Q04DX003 (ip), vehicle: other 95 % of control | dose: 200.0 mg/kg/injection, schedule: Q01DX009 (ip), vehicle: other 105 % of control | dose: 200.0 mg/kg/injection, schedule: Q04DX003 (ip), vehicle: other 101 % of control | dose: 400.0 mg/kg/injection, schedule: Q01DX009 (ip), vehicle: other 105 % of control | dose: 400.0 mg/kg/injection, schedule: Q04DX003 (ip), vehicle: other 106 % of control

CC[C@@H]1C[C@H]2CC3c4[nH]c5ccc(OC)cc5c4CCN(C2)C31
inactive: [1] 96 % of control | [2] 96 % of control | [3] 93 % of control and 109 % of control

C/C=C\c1ccc(OC(=O)NCCC)c(OC)c1
inactive: [13] 95 % of control and 97 % of control | [4] 100 % of control | dose: 100.0 mg/kg/injection, schedule: Q04DX002 (ip), vehicle: saline with Tween-80 102 % of control and 106 % of control | [10] 97 % of control | dose: 200.0 mg/kg/injection, schedule: Q01DX009 (ip), vehicle: saline with Tween-80 95 % of control and 97 % of control | [5] 113 % of control | dose: 200.0 mg/kg/injection, schedule: Q04DX002 (ip), vehicle: saline with Tween-80 105 % of control and 112 % of control | [11] 87 % of control | dose: 400.0 mg/kg/injection, schedule: Q01DX009 (ip), vehicle: saline with Tween-80 97 % of control | [6] 95 % of control | dose: 400.0 mg/kg/injection, schedule: Q04DX002 (ip), vehicle: saline with Tween-80 94 % of control and 106 % of control | [12] 102 % of control

O=C(O)CCC(NC(=O)c1ccc(Cc2ccc(NC(=O)OCc3ccccc3)cc2)cc1)C(=O)O (stereo unspecified)
inactive: [7] 96 % of control | [18] 97 % of control | [8] 95 % of control | [19] 94 % of control | [9] 93 % of control | [20] 103 % of control

CC(=O)OS(C)(=O)=O
inactive: [17] 100 % of control | [7] 100 % of control | [18] 105 % of control

CCOC(=O)C1=Cc2ccccc2OC1
inactive: dose: 75.0 mg/kg/injection, schedule: Q01DX001 (ip), vehicle: saline 94 % of control | dose: 150.0 mg/kg/injection, schedule: Q01DX001 (ip), vehicle: saline 96 % of control | dose: 300.0 mg/kg/injection, schedule: Q01DX001 (ip), vehicle: saline 91 % of control

O=C(O)C1OC1c1ccccc1 (stereo unspecified)
inactive: dose: 100.0 mg/kg/injection, schedule: Q01DX009 (ip), vehicle: saline 107 % of control | [10] 98 % of control | dose: 200.0 mg/kg/injection, schedule: Q01DX009 (ip), vehicle: saline 109 % of control | [11] 98 % of control | dose: 400.0 mg/kg/injection, schedule: Q01DX009 (ip), vehicle: saline 104 % of control | [12] 100 % of control
